# Assay results published in publication PMC11842588, “A first-in-class selective inhibitor of ERK1/2 and ERK5 overcomes drug resistance with a single-molecule strategy” (Signal Transduction and Targeted Therapy, 2025).
# Tests used:
# Test in all cases: Kinase profiling
# Assay type in all cases: biochemical
# PKCε(h) = target: T1, PKCε(h) (Homo sapiens, UniProt Q02156)
# T1 construct: purchased Eurofins Cerep SA (KinaseProfiler)
# Method: (§1) 380 kinases inhibitory activities of SKLB-D18 were conducted by Eurofins Cerep SA. The result was illustrated by kinase tree (http://www.kinhub.org/kinmap/).
# CaMKK2(h) = target: T2, CaMKK2(h) (Homo sapiens, UniProt Q96RR4)
# T2 construct: purchased Eurofins Cerep SA (KinaseProfiler)
# Method: as §1
# MAPK7(h) = target: T3, MAPK7(h) (Homo sapiens, UniProt Q13164)
# T3 construct: purchased Eurofins Cerep SA (KinaseProfiler)
# Method: as §1
# CDK2/cyclinE(h) = target: T4, CDK2/cyclinE(h) (Homo sapiens, UniProt P24941)
# T4 construct: purchased Eurofins Cerep SA (KinaseProfiler)
# Method: as §1
# MKK6(h) = target: T5, MKK6(h) (Homo sapiens, UniProt P52564)
# T5 construct: purchased Eurofins Cerep SA (KinaseProfiler)
# Method: as §1
# PRKG2(h) = target: T6, PRKG2(h) (Homo sapiens, UniProt Q13237)
# T6 construct: purchased Eurofins Cerep SA (KinaseProfiler)
# Method: as §1
# Tec(h) activated = target: T7, Tec(h) activated (Homo sapiens, UniProt P42680)
# T7 construct: purchased Eurofins Cerep SA (KinaseProfiler)
# Method: as §1
# SRMS(h) = target: T8, SRMS(h) (Homo sapiens, UniProt Q9H3Y6)
# T8 construct: purchased Eurofins Cerep SA (KinaseProfiler)
# Method: as §1
# c-RAF(h) = target: T9, c-RAF(h) (Homo sapiens, UniProt P04049)
# T9 construct: purchased Eurofins Cerep SA (KinaseProfiler)
# Method: as §1
# AMPKα1(h) = target: T10, AMPKα1(h) (Homo sapiens, UniProt Q13131)
# T10 construct: purchased Eurofins Cerep SA (KinaseProfiler)
# Method: as §1
# Lck(h) = target: T11, Lck(h) (Homo sapiens, UniProt P06239)
# T11 construct: purchased Eurofins Cerep SA (KinaseProfiler)
# Method: as §1
# TNIK(h) = target: T12, TNIK(h) (Homo sapiens, UniProt Q9UKE5)
# T12 construct: purchased Eurofins Cerep SA (KinaseProfiler)
# Method: as §1
# IGF-1R(h), activated = target: T13, IGF-1R(h), activated (Homo sapiens, UniProt P08069)
# T13 construct: purchased Eurofins Cerep SA (KinaseProfiler)
# Method: as §1
# SGK3(h) = target: T14, SGK3(h) (Homo sapiens, UniProt Q96BR1)
# T14 construct: purchased Eurofins Cerep SA (KinaseProfiler)
# Method: as §1
# PKAcβ(h) = target: T15, PKAcβ(h) (Homo sapiens, UniProt P22694)
# T15 construct: purchased Eurofins Cerep SA (KinaseProfiler)
# Method: as §1
# MEK2(h) = target: T16, MEK2(h) (Homo sapiens, UniProt P36507)
# T16 construct: purchased Eurofins Cerep SA (KinaseProfiler)
# Method: as §1
# CDKL1(h) = target: T17, CDKL1(h) (Homo sapiens, UniProt Q00532)
# T17 construct: purchased Eurofins Cerep SA (KinaseProfiler)
# Method: as §1
# Hck(h) = target: T18, Hck(h) (Homo sapiens, UniProt P08631)
# T18 construct: purchased Eurofins Cerep SA (KinaseProfiler)
# Method: as §1
# SNRK(h) = target: T19, SNRK(h) (Homo sapiens, UniProt Q9NRH2)
# T19 construct: purchased Eurofins Cerep SA (KinaseProfiler)
# Method: as §1
# TGFBR1(h) = target: T20, TGFBR1(h) (Homo sapiens, UniProt P36897)
# T20 construct: purchased Eurofins Cerep SA (KinaseProfiler)
# Method: as §1
# MEKK2(h) = target: T21, MEKK2(h) (Homo sapiens, UniProt Q9Y2U5)
# T21 construct: purchased Eurofins Cerep SA (KinaseProfiler)
# Method: as §1
# PKR(h) = target: T22, PKR(h) (Homo sapiens, UniProt P19525)
# T22 construct: purchased Eurofins Cerep SA (KinaseProfiler)
# Method: as §1
# LATS1(h) = target: T23, LATS1(h) (Homo sapiens, UniProt O95835)
# T23 construct: purchased Eurofins Cerep SA (KinaseProfiler)
# Method: as §1
# CDK9/cyclin T1(h) = target: T24, CDK9/cyclin T1(h) (Homo sapiens, UniProt P50750)
# T24 construct: purchased Eurofins Cerep SA (KinaseProfiler)
# Method: as §1
# Wee1(h) = target: T25, Wee1(h) (Homo sapiens, UniProt P30291)
# T25 construct: purchased Eurofins Cerep SA (KinaseProfiler)
# Method: as §1
# CaMKK1(h) = target: T26, CaMKK1(h) (Homo sapiens, UniProt Q8N5S9)
# T26 construct: purchased Eurofins Cerep SA (KinaseProfiler)
# Method: as §1
# MOK(h) = target: T27, MOK(h) (Homo sapiens, UniProt Q9UQ07)
# T27 construct: purchased Eurofins Cerep SA (KinaseProfiler)
# Method: as §1
# ALK6(h) = target: T28, ALK6(h) (Homo sapiens, UniProt O00238)
# T28 construct: purchased Eurofins Cerep SA (KinaseProfiler)
# Method: as §1
# PAK6(h) = target: T29, PAK6(h) (Homo sapiens, UniProt Q9NQU5)
# T29 construct: purchased Eurofins Cerep SA (KinaseProfiler)
# Method: as §1
# ULK2(h) = target: T30, ULK2(h) (Homo sapiens, UniProt Q8IYT8)
# T30 construct: purchased Eurofins Cerep SA (KinaseProfiler)
# Method: as §1
# TLK1(h) = target: T31, TLK1(h) (Homo sapiens, UniProt Q9UKI8)
# T31 construct: purchased Eurofins Cerep SA (KinaseProfiler)
# Method: as §1
# PhKγ1(h) = target: T32, PhKγ1(h) (Homo sapiens, UniProt Q16816)
# T32 construct: purchased Eurofins Cerep SA (KinaseProfiler)
# Method: as §1
# Rsk2(h) = target: T33, Rsk2(h) (Homo sapiens, UniProt P51812)
# T33 construct: purchased Eurofins Cerep SA (KinaseProfiler)
# Method: as §1
# Mnk2(h) = target: T34, Mnk2(h) (Homo sapiens, UniProt Q9HBH9)
# T34 construct: purchased Eurofins Cerep SA (KinaseProfiler)
# Method: as §1
# PKCι(h) = target: T35, PKCι(h) (Homo sapiens, UniProt P41743)
# T35 construct: purchased Eurofins Cerep SA (KinaseProfiler)
# Method: as §1
# PI3KC2a(h) = target: T36, PI3KC2a(h) (Homo sapiens, UniProt O00443)
# T36 construct: purchased Eurofins Cerep SA (KinaseProfiler)
# Method: as §1
# DYRK3(h) = target: T37, DYRK3(h) (Homo sapiens, UniProt O43781)
# T37 construct: purchased Eurofins Cerep SA (KinaseProfiler)
# Method: as §1
# MEKK3(h) = target: T38, MEKK3(h) (Homo sapiens, UniProt Q99759)
# T38 construct: purchased Eurofins Cerep SA (KinaseProfiler)
# Method: as §1
# NDR1(h) = target: T39, NDR1(h) (Homo sapiens, UniProt Q15208)
# T39 construct: purchased Eurofins Cerep SA (KinaseProfiler)
# Method: as §1
# PKBβ(h) = target: T40, PKBβ(h) (Homo sapiens, UniProt P31751)
# T40 construct: purchased Eurofins Cerep SA (KinaseProfiler)
# Method: as §1
# Plk3(h) = target: T41, Plk3(h) (Homo sapiens, UniProt Q9H4B4)
# T41 construct: purchased Eurofins Cerep SA (KinaseProfiler)
# Method: as §1
# T12 sequence (Q9UKE5 whole entry): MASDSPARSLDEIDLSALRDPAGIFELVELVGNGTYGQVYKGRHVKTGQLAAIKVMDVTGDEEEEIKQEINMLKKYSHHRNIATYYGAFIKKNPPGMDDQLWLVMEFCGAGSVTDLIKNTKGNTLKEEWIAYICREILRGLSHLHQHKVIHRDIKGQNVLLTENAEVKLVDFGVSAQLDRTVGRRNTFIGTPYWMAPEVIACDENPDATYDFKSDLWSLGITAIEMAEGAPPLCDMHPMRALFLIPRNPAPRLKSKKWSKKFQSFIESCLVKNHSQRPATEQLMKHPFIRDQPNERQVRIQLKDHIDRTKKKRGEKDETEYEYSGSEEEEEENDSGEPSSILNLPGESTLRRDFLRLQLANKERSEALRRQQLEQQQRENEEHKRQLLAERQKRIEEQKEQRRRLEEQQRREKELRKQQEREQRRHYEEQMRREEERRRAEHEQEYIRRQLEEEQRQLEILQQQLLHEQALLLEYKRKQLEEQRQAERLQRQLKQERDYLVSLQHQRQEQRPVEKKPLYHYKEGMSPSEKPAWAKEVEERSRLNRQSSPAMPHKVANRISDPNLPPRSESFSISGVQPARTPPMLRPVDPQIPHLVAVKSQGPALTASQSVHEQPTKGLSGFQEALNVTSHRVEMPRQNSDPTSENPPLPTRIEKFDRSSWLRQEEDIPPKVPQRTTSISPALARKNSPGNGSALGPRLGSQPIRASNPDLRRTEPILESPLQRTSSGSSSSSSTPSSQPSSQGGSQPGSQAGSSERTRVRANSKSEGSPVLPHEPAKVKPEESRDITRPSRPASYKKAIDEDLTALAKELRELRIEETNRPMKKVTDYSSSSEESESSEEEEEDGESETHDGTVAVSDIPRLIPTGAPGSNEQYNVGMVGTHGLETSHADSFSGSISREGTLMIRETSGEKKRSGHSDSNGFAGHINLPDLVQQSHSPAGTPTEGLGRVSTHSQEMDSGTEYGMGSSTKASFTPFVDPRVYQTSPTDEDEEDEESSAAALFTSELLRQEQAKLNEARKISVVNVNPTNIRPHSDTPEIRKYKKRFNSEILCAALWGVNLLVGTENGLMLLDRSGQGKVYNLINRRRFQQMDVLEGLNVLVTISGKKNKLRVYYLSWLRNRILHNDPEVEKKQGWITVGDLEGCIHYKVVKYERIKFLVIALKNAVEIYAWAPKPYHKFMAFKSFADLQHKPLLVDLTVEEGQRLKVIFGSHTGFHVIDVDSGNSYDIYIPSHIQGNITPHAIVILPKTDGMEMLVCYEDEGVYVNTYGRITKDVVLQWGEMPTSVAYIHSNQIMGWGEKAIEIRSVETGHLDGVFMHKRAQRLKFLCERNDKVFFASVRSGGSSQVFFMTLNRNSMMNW
# T24 sequence (P50750 whole entry): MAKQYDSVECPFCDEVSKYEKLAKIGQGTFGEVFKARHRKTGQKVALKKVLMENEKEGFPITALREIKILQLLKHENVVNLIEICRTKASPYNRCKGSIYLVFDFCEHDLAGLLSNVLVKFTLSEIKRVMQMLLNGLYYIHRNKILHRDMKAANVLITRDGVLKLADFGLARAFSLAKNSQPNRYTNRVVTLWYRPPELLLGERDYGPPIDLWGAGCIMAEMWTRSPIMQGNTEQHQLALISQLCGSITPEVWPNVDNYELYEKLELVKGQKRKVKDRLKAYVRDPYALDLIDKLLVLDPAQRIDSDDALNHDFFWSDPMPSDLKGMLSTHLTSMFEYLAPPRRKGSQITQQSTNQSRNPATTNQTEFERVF
# T24 sequence (O60563 whole entry partner): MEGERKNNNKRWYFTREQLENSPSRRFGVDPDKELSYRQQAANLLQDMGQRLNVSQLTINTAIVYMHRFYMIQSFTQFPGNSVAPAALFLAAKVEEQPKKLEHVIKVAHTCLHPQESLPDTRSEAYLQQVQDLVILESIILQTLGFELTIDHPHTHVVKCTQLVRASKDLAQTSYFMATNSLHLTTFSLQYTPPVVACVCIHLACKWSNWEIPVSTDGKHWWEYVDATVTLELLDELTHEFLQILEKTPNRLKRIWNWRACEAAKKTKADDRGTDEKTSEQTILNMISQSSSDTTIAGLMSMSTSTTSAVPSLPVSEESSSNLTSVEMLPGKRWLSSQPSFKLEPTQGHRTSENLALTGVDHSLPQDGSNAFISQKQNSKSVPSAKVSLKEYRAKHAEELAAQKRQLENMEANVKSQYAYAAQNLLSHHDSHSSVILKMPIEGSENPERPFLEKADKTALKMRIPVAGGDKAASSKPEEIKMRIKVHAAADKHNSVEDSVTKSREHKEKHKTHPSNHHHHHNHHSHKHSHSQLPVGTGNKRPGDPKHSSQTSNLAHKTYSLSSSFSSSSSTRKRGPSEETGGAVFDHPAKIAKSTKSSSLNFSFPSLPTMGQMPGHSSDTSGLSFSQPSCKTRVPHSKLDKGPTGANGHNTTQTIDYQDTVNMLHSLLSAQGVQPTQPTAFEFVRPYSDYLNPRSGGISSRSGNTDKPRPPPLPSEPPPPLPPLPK
# T18 sequence (P08631 whole entry): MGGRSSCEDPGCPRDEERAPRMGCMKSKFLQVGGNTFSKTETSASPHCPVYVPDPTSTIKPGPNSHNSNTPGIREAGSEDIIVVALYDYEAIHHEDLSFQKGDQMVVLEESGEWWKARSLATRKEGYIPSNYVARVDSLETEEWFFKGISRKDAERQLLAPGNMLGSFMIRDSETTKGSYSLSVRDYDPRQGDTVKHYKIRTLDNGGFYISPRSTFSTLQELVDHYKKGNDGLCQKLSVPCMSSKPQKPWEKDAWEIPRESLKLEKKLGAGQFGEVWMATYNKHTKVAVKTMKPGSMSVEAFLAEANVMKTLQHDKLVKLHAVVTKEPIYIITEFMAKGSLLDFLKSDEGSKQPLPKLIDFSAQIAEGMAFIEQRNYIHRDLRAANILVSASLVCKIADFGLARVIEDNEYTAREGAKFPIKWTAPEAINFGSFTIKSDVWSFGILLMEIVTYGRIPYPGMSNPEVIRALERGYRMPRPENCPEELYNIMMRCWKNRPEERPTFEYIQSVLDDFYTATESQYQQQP
# T20 sequence (P36897 34-503): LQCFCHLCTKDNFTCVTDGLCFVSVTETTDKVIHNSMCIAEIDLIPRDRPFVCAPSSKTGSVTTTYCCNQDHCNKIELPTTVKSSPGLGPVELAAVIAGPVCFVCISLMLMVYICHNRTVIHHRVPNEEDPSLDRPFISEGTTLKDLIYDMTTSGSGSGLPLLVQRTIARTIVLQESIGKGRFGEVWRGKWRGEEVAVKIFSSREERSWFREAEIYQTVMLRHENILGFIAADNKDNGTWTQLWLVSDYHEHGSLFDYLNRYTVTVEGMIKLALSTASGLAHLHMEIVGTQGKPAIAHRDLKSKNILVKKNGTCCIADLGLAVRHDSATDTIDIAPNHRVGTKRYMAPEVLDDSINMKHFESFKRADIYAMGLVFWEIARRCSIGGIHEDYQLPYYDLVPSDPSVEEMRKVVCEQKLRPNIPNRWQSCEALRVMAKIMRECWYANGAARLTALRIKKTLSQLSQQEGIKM
# T32 sequence (Q16816 whole entry): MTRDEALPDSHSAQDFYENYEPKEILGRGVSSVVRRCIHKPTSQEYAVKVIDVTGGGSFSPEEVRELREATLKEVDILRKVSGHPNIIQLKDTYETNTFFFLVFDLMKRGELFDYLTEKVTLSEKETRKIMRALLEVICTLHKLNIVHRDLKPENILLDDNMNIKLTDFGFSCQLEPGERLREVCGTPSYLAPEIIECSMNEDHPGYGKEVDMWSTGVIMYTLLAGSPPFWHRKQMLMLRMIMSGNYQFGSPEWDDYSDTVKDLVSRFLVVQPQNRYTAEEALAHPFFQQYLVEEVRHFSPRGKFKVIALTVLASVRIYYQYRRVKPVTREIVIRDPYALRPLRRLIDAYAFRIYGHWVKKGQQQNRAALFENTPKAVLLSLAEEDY
# T16 sequence (P36507 whole entry): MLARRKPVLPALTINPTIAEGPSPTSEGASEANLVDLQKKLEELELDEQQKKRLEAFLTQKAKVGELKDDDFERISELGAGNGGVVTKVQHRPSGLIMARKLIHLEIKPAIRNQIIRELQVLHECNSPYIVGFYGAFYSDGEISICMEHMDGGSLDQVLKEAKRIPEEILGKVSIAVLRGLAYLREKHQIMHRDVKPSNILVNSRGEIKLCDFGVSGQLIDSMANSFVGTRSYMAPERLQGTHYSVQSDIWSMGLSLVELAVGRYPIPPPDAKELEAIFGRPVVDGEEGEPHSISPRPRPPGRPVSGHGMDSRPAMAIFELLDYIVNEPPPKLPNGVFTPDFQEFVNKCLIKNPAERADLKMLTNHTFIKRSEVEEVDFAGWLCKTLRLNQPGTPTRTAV
# T2 sequence (Q96RR4 whole entry): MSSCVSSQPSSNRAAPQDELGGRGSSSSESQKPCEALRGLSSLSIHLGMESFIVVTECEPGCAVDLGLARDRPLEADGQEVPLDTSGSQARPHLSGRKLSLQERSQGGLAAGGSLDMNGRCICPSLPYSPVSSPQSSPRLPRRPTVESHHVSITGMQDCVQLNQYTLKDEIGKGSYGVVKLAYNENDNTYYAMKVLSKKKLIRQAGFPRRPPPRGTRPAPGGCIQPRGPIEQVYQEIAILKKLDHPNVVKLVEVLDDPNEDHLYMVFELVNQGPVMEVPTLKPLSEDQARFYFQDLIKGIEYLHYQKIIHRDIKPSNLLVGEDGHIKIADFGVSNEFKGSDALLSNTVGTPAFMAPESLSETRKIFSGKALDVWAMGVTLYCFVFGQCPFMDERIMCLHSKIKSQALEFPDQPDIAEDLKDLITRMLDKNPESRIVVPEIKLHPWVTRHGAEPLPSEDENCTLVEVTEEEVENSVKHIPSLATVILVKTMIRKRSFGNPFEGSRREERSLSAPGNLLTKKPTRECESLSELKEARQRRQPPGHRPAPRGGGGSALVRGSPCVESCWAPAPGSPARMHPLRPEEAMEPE
smiles,measurement,setting,value
"CN(C)Cc1cccc(Nc2ncc(Cl)c(-c3csc(C(=O)NN4CCOCC4)c3)n2)c1 [SKLB-D18, 4-(5-chloro-2-((3-((dimethylamino)methyl)phenyl)amino)pyrimidin-4-yl)-N-morpholinothiophene-2-carboxamide]",inhibition at 1 µM,PKCε(h),14%
same,inhibition at 1 µM,CaMKK2(h),21%
same,inhibition at 1 µM,MAPK7(h),93%
same,inhibition at 1 µM,CDK2/cyclinE(h),48%
same,inhibition at 1 µM,MKK6(h),5%
same,inhibition at 1 µM,PRKG2(h),18%
same,inhibition at 1 µM,Tec(h) activated,8%
same,inhibition at 1 µM,SRMS(h),11%
same,inhibition at 1 µM,c-RAF(h),65%
same,inhibition at 1 µM,AMPKα1(h),61%
same,inhibition at 1 µM,Lck(h),63%
same,inhibition at 1 µM,TNIK(h),48%
same,inhibition at 1 µM,"IGF-1R(h), activated",0%
same,inhibition at 1 µM,SGK3(h),9%
same,inhibition at 1 µM,PKAcβ(h),12%
same,inhibition at 1 µM,MEK2(h),59%
same,inhibition at 1 µM,CDKL1(h),48%
same,inhibition at 1 µM,Hck(h),20%
same,inhibition at 1 µM,SNRK(h),-14%
same,inhibition at 1 µM,TGFBR1(h),20%
same,inhibition at 1 µM,MEKK2(h),53%
same,inhibition at 1 µM,PKR(h),26%
same,inhibition at 1 µM,LATS1(h),21%
same,inhibition at 1 µM,CDK9/cyclin T1(h),28%
same,inhibition at 1 µM,Wee1(h),48%
same,inhibition at 1 µM,CaMKK1(h),12%
same,inhibition at 1 µM,MOK(h),31%
same,inhibition at 1 µM,ALK6(h),10%
same,inhibition at 1 µM,PAK6(h),10%
same,inhibition at 1 µM,ULK2(h),67%
same,inhibition at 1 µM,TLK1(h),24%
same,inhibition at 1 µM,PhKγ1(h),63%
same,inhibition at 1 µM,Rsk2(h),41%
same,inhibition at 1 µM,Mnk2(h),59%
same,inhibition at 1 µM,PKCι(h),8%
same,inhibition at 1 µM,PI3KC2a(h),1%
same,inhibition at 1 µM,DYRK3(h),49%
same,inhibition at 1 µM,MEKK3(h),8%
same,inhibition at 1 µM,NDR1(h),66%
same,inhibition at 1 µM,PKBβ(h),-12%
same,inhibition at 1 µM,Plk3(h),6%
